How the values were obtained:
Assay in all cases: relative viability (nuclei count vs DMSO), 5 days (fraction); higher = more cells survive
BEN = test system: BEN
How it was run: (§1)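 The day after seeding in 1536-well plates, lung cancer cell lines were treated by pin tool with a single drug, or with a fixed anchor-drug dose together with five library-drug doses (not always all listed) in √10 steps. After 5 days, a combined fix-and-stain solution (final 0.05% Triton X-100, 1% formaldehyde, 1 ug/ml Hoechst) was added. Nuclei counted on 4× images gave relative viability as treated counts over vehicle counts, reported as the median of duplicate plates.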

NCI-H441 = test system: NCI-H441
How it was run: as §1

NCI-H23 = test system: NCI-H23
How it was run: as §1

NCI-H727 = test system: NCI-H727
How it was run: as §1

NCI-H2087 = test system: NCI-H2087
How it was run: as §1

NCI-H2023 = test system: NCI-H2023
How it was run: as §1

NCI-H2347 = test system: NCI-H2347
How it was run: as §1

LOU-NH91 = test system: LOU-NH91
How it was run: as §1

NCI-H1993 = test system: NCI-H1993
How it was run: as §1

EMC-BAC-2 = test system: EMC-BAC-2
How it was run: as §1

HARA = test system: HARA
How it was run: as §1

HCC-44 = test system: HCC-44
How it was run: as §1

NCI-H522 = test system: NCI-H522
How it was run: as §1

NCI-H838 = test system: NCI-H838
How it was run: as §1

NCI-H647 = test system: NCI-H647
How it was run: as §1

NCI-H3122 = test system: NCI-H3122
How it was run: as §1

NCI-H650 = test system: NCI-H650
How it was run: as §1

NCI-H1395 = test system: NCI-H1395
How it was run: as §1

NCI-H596 = test system: NCI-H596
How it was run: as §1

NCI-H2126 = test system: NCI-H2126
How it was run: as §1

201T = test system: 201T
How it was run: as §1

LCLC-103H = test system: LCLC-103H
How it was run: as §1

CCN(CC)CCCCNc1ncc2cc(-c3cc(OC)cc(OC)c3)c(NC(=O)NC(C)(C)C)nc2n1 + CC(=O)Nc1cccc(-n2c(=O)n(C3CC3)c(=O)c3c(Nc4ccc(I)cc4F)n(C)c(=O)c(C)c32)c1 [Trametinib] (partner 0.02 µM)
relative viability (BEN; first compound 0.01 µM): 1.15 | relative viability (BEN; first compound 0.03162 µM): 0.797 | relative viability (BEN; first compound 0.1 µM): 0.978 | relative viability (BEN; first compound 0.3162 µM): 1.09 | relative viability (BEN; first compound 1 µM): 0.888 | relative viability (NCI-H441; first compound 0.01 µM): 0.545 | relative viability (NCI-H441; first compound 0.03162 µM): 0.506 | relative viability (NCI-H441; first compound 0.1 µM): 0.489 | relative viability (NCI-H441; first compound 0.3162 µM): 0.529 | relative viability (NCI-H441; first compound 1 µM): 0.408 | relative viability (NCI-H23; first compound 0.01 µM): 0.321 | relative viability (NCI-H23; first compound 0.03162 µM): 0.341 | relative viability (NCI-H23; first compound 0.1 µM): 0.432 | relative viability (NCI-H23; first compound 0.3162 µM): 0.4 | relative viability (NCI-H23; first compound 1 µM): 0.319 | relative viability (NCI-H727; first compound 0.01 µM): 0.387 | relative viability (NCI-H727; first compound 0.03162 µM): 0.412 | relative viability (NCI-H727; first compound 0.1 µM): 0.369 | relative viability (NCI-H727; first compound 0.3162 µM): 0.362 | relative viability (NCI-H727; first compound 1 µM): 0.362 | relative viability (NCI-H2087; first compound 0.01 µM): 0.202 | relative viability (NCI-H2087; first compound 0.03162 µM): 0.171 | relative viability (NCI-H2087; first compound 0.1 µM): 0.217 | relative viability (NCI-H2087; first compound 0.3162 µM): 0.189 | relative viability (NCI-H2087; first compound 1 µM): 0.209 | relative viability (NCI-H2023; first compound 0.01 µM): 0.662 | relative viability (NCI-H2023; first compound 0.03162 µM): 0.551 | relative viability (NCI-H2023; first compound 0.1 µM): 0.624 | relative viability (NCI-H2023; first compound 0.3162 µM): 0.629 | relative viability (NCI-H2023; first compound 1 µM): 0.447 | relative viability (NCI-H2347; first compound 0.01 µM): 0.253 | relative viability (NCI-H2347; first compound 0.03162 µM): 0.261 | relative viability (NCI-H2347; first compound 0.1 µM): 0.293 | relative viability (NCI-H2347; first compound 0.3162 µM): 0.367 | relative viability (NCI-H2347; first compound 1 µM): 0.321 | relative viability (LOU-NH91; first compound 0.01 µM): 0.758 | relative viability (LOU-NH91; first compound 0.03162 µM): 0.771 | relative viability (LOU-NH91; first compound 0.1 µM): 0.829 | relative viability (LOU-NH91; first compound 0.3162 µM): 0.844 | relative viability (LOU-NH91; first compound 1 µM): 0.766 | relative viability (NCI-H1993; first compound 0.01 µM): 0.567 | relative viability (NCI-H1993; first compound 0.03162 µM): 0.5 | relative viability (NCI-H1993; first compound 0.1 µM): 0.53 | relative viability (NCI-H1993; first compound 0.3162 µM): 0.557 | relative viability (NCI-H1993; first compound 1 µM): 0.0258 | relative viability (EMC-BAC-2; first compound 0.03162 µM): 0.986 | relative viability (EMC-BAC-2; first compound 0.1 µM): 0.917 | relative viability (EMC-BAC-2; first compound 0.3162 µM): 0.847 | relative viability (EMC-BAC-2; first compound 1 µM): 0.83 | relative viability (HARA; first compound 0.01 µM): 0.589 | relative viability (HARA; first compound 0.03162 µM): 0.632 | relative viability (HARA; first compound 0.1 µM): 0.645 | relative viability (HARA; first compound 0.3162 µM): 0.579 | relative viability (HARA; first compound 1 µM): 0.466 | relative viability (HCC-44; first compound 0.01 µM): 0.987 | relative viability (HCC-44; first compound 0.03162 µM): 1.08 | relative viability (HCC-44; first compound 0.1 µM): 1.1 | relative viability (HCC-44; first compound 0.3162 µM): 1.11 | relative viability (HCC-44; first compound 1 µM): 0.931 | relative viability (NCI-H522; first compound 0.01 µM): 0.799 | relative viability (NCI-H522; first compound 0.03162 µM): 0.772 | relative viability (NCI-H522; first compound 0.1 µM): 0.787 | relative viability (NCI-H522; first compound 0.3162 µM): 0.664 | relative viability (NCI-H522; first compound 1 µM): 0.883 | relative viability (NCI-H838; first compound 0.01 µM): 0.469 | relative viability (NCI-H838; first compound 0.03162 µM): 0.515 | relative viability (NCI-H838; first compound 0.1 µM): 0.514 | relative viability (NCI-H838; first compound 0.3162 µM): 0.435 | relative viability (NCI-H838; first compound 1 µM): 0.443 | relative viability (NCI-H647; first compound 0.01 µM): 0.382 | relative viability (NCI-H647; first compound 0.03162 µM): 0.517 | relative viability (NCI-H647; first compound 0.1 µM): 0.512 | relative viability (NCI-H647; first compound 0.3162 µM): 0.456 | relative viability (NCI-H647; first compound 1 µM): 0.267 | relative viability (NCI-H3122; first compound 0.01 µM): 0.246 | relative viability (NCI-H3122; first compound 0.03162 µM): 0.229 | relative viability (NCI-H3122; first compound 0.1 µM): 0.226 | relative viability (NCI-H3122; first compound 0.3162 µM): 0.239 | relative viability (NCI-H3122; first compound 1 µM): 0.247 | relative viability (NCI-H650; first compound 0.01 µM): 1.03 | relative viability (NCI-H650; first compound 0.03162 µM): 1.01 | relative viability (NCI-H650; first compound 0.1 µM): 0.962 | relative viability (NCI-H650; first compound 0.3162 µM): 1.07 | relative viability (NCI-H650; first compound 1 µM): 0.925 | relative viability (NCI-H1395; first compound 0.01 µM): 1.05 | relative viability (NCI-H1395; first compound 0.03162 µM): 0.918 | relative viability (NCI-H1395; first compound 0.1 µM): 0.907 | relative viability (NCI-H1395; first compound 0.3162 µM): 0.63 | relative viability (NCI-H1395; first compound 1 µM): 0.568 | relative viability (NCI-H596; first compound 0.01 µM): 0.865 | relative viability (NCI-H596; first compound 0.03162 µM): 0.879 | relative viability (NCI-H596; first compound 0.1 µM): 0.677 | relative viability (NCI-H596; first compound 0.3162 µM): 0.778 | relative viability (NCI-H596; first compound 1 µM): 0.646 | relative viability (NCI-H2126; first compound 0.01 µM): 0.533 | relative viability (NCI-H2126; first compound 0.03162 µM): 0.578 | relative viability (NCI-H2126; first compound 0.1 µM): 0.58 | relative viability (NCI-H2126; first compound 0.3162 µM): 0.58 | relative viability (NCI-H2126; first compound 1 µM): 0.578 | relative viability (201T; first compound 0.01 µM): 0.716 | relative viability (201T; first compound 0.03162 µM): 0.725 | relative viability (201T; first compound 0.1 µM): 0.742 | relative viability (201T; first compound 0.3162 µM): 0.742 | relative viability (201T; first compound 1 µM): 0.605 | relative viability (LCLC-103H; first compound 0.01 µM): 0.691 | relative viability (LCLC-103H; first compound 0.03162 µM): 0.719 | relative viability (LCLC-103H; first compound 0.1 µM): 0.75 | relative viability (LCLC-103H; first compound 0.3162 µM): 0.68 | relative viability (LCLC-103H; first compound 1 µM): 0.579

From the supplement of paper PMC10307832
